{"source": "patent US11001829B2", "about": "“Functional screening with optimized functional CRISPR-Cas systems” (The Broad Institute, Inc., priority 2014, dated 2021)", "key": {"Factor VII": {"test_system": "Factor VII", "conditions": "LNP siRNA systems containing the lipid; cited from earlier work"}, "DNA": {"test_system": "DNA", "test": "indel formation by double nicking with sgRNA pairs", "type": "cell-based", "conditions": "substitution of Cas9n in a given sgRNA pair", "excerpt": "Aspects of the invention relate to the expression of the gene product being decreased or a template polynucleotide being further introduced into the DNA molecule encoding the gene product or an intervening sequence being excised precisely by allowing the two 5′ overhangs to reanneal and ligate or the activity or function of the gene product being altered or the expression of the gene product being increased. In an embodiment of the invention, the gene product is a protein. Only sgRNA pairs creating 5′ overhangs with less than 8 bp overlap between the guide sequences (offset greater than −8 bp) were able to mediate detectable indel formation. […] Nonetheless, a pair of sgRNAs that will generate a 5′ overhang with Cas9n should in principle generate the corresponding 3′ overhang instead, and double nicking. […] Accordingly, in some embodiments, a recombination template is also provided. A recombination template may be a component of another vector as described herein, contained in a separate vector, or provided as a separate polynucleotide. In some embodiments, a recombination template is designed to serve as a template in homologous recombination, such as within or near a target sequence nicked or cleaved by a CRISPR enzyme as a part of a CRISPR complex. […]"}, "MS2 RNA aptamer": {"test_system": "MS2 RNA aptamer", "conditions": "cited from earlier work"}, "[1]": {"test_system": "A375 melanoma cell line (BRAF V600E)", "conditions": "cited from earlier work"}, "CXCR4, CACNAC1A": {"test_system": "CXCR4, CACNAC1A", "test": "repression by non-coding Alu loops in the sgRNA with dCas9, HEK293FT, qPCR", "type": "cell-based, human", "conditions": "in complex with dCas9", "method": "The non-coding Alu RNA has previously been described as a transacting repressor interfering with RNA polymerase II in mammalian cells. In addition, a minimal loop required for repression has been identified (sciencedirect.com/science/article/pii/S1097276508000026). Applicants designed guides with different sites of incorporation of the truncated Alu loop (and in combination with PP7 loops). Sequences for these sgRNA backbones are listed below: […]\nA total plasmid mass of 0.3 μg/well was transfected using 0.6 μL/well Lipofectamine 2000 (Life Technologies) according to the manufacturer's instructions. […] Relative RNA expression levels were quantified by reverse transcription and quantitative PCR (qPCR) using TaqMan qPCR probes (Life Technologies) and Fast Advanced Master Mix (Life Technologies). qPCR was carried out in 5 μL multiplexed reactions and 384-well format using the LightCycler 480 Instrument II. Data was analyzed by the ΔΔCt method: target Ct values (FAM dye) were normalized to GAPDH Ct values (VIC dye), and fold changes in target gene expression were determined by comparing to GFP-transfected experimental controls."}, "Neurog2": {"test_system": "Neurog2", "test": "Neurog2 upregulation in Neuro-2a cells, qRT-PCR", "type": "cell-based", "method": "120,000 cells were plated in each well of a 24-well plate 18-20 h before transfection. Cells were transfected with Lipofectamine transfection reagent (Life Technologies) according to the manufacturer's instructions.\nRNA was extracted using the RNeasy kit (Qiagen) according to manufacturer's instructions and […] of RNA per sample was reverse-transcribed using qScript (Quanta Biosystems). Relative mRNA levels were measured by reverse transcription and quantitative PCR (qRT-PCR) using TaqMan probes specific for the targeted gene as well as GAPDH as an endogenous control (Life Technologies). ddCt analysis was used to obtain fold-changes relative to negative controls transfected with GFP only.\nA minimal hairpin aptamer capable of binding to the bacteriophage coat protein MS2, which is known to be capable of binding MS2 through strong sequence- and structure-specific interactions in mammalian cells^18,19, to incorporate into tetraloop and stem-loop 2 (FIG. 27b) was chosen. Tests were performed to evaluate whether MS2-mediated recruitment of VP64 to the tetraloop and stem-loop 2 could mediate transcriptional up-regulation more efficiently than a dCas9-VP64 fusion alone. Aptamer-mediated recruitment of MS2-VP64 to either tetraloop (sgRNA 1.1) or stem-loop 2 (sgRNA 1.2) mediated 3- and 5-fold higher levels of Neurog2 up-regulation than a dCas9-VP64 fusion (sgRNA 1.0), respectively."}, "human ASCL1": {"test_system": "human ASCL1", "test": "ASCL1 activation in HEK293FT cells, qPCR", "type": "cell-based", "method": "(§1) Human HEK293FT cells were maintained in high-glucose DMEM with GlutaMax and sodium pyruvate (Life Technologies) supplemented with 10% heat-inactivated characterized HyClone fetal bovine serum (Thermo Scientific) and 1% penicillin/streptomycin (Life Technologies). Cells were passaged daily at a ratio 1 to 2 or 1 to 2.5. For MS2/dCas9 activator experiments, 20,000 HEK293FT cells were plated in 100 μL of culture medium in poly-d-lysine coated 96-well plates (BD biosciences). […]\n(§2) Total plasmid mass per well was 0.3 micrograms. […] Gene expression levels were quantified by using Taqman qPCR probes (Life technologies) and Fast Advanced Master Mix (Life Technologies). ASCL1 and MYOD1 expression levels were calculated relative to GAPDH expression level. Fold gene expression levels were determined by comparison to samples transfected with GFP plasmid only. […]\n(§3) A total plasmid mass of 0.3 ug/well was transfected using 1.5 uL/well Lipofectamine 2000 (Life Technologies) according to the manufacturer's instructions. […] Relative RNA expression levels were quantified by reverse transcription and quantitative PCR (qPCR) using Taqman qPCR probes (Life technologies) and Fast Advanced Master Mix (Life Technologies). qPCR was carried out in 5 uL multiplexed reactions and 384-well format using the LightCycler 480 Instrument II. […]"}, "human MYOD1": {"test_system": "human MYOD1", "test": "MYOD1 activation in HEK293FT cells, qPCR", "type": "cell-based", "method": "as §1, §2, §3"}}}
{"molecule": "1,2-dilinoleyloxy-keto-N,N-dimethyl-3-aminopropane [DLinKDMA]", "values": [{"measurement": "gene silencing potency, rank order", "setting": "Factor VII", "result": "DLinKC2-DMA>DLinKDMA>DLinDMA>>DLinDAP"}]}
{"molecule": "CCCCC/C=C\\C/C=C\\CCCCCCCCC1(CCCCCCCC/C=C\\C/C=C\\CCCCC)OCC(CCN(C)C)O1", "note": "(centres unmarked) [DLinKC2-DMA, 1,2-dilinoleyl-4-(2-dimethylaminoethyl)-[1,3]-dioxolane]", "values": [{"measurement": "gene silencing potency, rank order", "setting": "Factor VII", "result": "DLinKC2-DMA>DLinKDMA>DLinDMA>>DLinDAP"}]}
{"molecule": "H840A: Cas9 with the H840A mutation in the HNH domain", "values": [{"measurement": "indel formation, in words", "setting": "DNA", "result": "no indel formation is observed"}]}
{"molecule": "N55K mutant of the MS2 bacteriophage coat protein: MS2 variant, N55K mutant", "values": [{"measurement": "binding affinity, in words", "setting": "MS2 RNA aptamer", "result": "higher binding affinity than wild type MS2"}]}
{"molecule": "CCCS(=O)(=O)Nc1ccc(F)c(C(=O)c2c[nH]c3ncc(Cl)cc23)c1F", "note": "[PLX4720]", "values": [{"measurement": "sensitivity of A375 cells, in words", "setting": "[1]", "result": "naturally sensitive"}]}
{"molecule": "CCCCC/C=C\\C/C=C\\CCCCCCCC(=O)OCC(CN(C)C)OC(=O)CCCCCCC/C=C\\C/C=C\\CCCCC", "note": "(centres unmarked) [DLinDAP, 1,2-dilineoyl-3-dimethylammonium-propane]", "values": [{"measurement": "gene silencing potency, rank order", "setting": "Factor VII", "result": "DLinKC2-DMA>DLinKDMA>DLinDMA>>DLinDAP"}]}
{"molecule": "CCCCC/C=C\\C/C=C\\CCCCCCCCOCC(CN(C)C)OCCCCCCCC/C=C\\C/C=C\\CCCCC", "note": "(centres unmarked) [DLinDMA, 1,2-dilinoleyloxy-3-N,N-dimethylaminopropane]", "values": [{"measurement": "gene silencing potency, rank order", "setting": "Factor VII", "result": "DLinKC2-DMA>DLinKDMA>DLinDMA>>DLinDAP"}]}
{"molecule": "minimal non-coding Alu-loops at the tetraloop and stem-loop 2: sgRNA backbone with truncated Alu loop at tetraloop and stem-loop 2 (nucleic acid) guide: GTTTTAGAGCTAGAGGCAGGAGAATGGCGTGAACCCGGGAGGTGGCCGAGATCGCTCCAGCCTGGGTGACAGAGCGAGACTCTGTCTCTAGCAAGTTAAAATAAGGCTAGTCCGTTATCAACTTGAGGCAGGAGAATGGCGTGAACCCGGGAGGTGGCCGAGATCGCTCCAGCCTGGGTGACAGAGCGAGACTCTGTCTCAAGTGGCACCGAGTCGGTGCTTTTTTT", "values": [{"measurement": "repression of target gene expression, in words", "setting": "CXCR4, CACNAC1A", "result": "able to repress target gene expression in complex with dCas9"}]}
{"molecule": "sgRNA 2.0: sgRNA scaffold in which the tetraloop and stem-loop 2 sequences have been replaced by an MS2 binding loop (nucleic acid, /note=“Description of Combined DNA/RNA Molecule Synthetic oligonucleotide”; modified_base (1)..(20) a, c, t, g, unknown or other) guide: NNNNNNNNNNNNNNNNNNNNGUUUUAGAGCUAGGCCAACATGAGGATCACCCATGTCTGCAGGGCCUAGCAAGUUAAAAUAAGGCUA", "values": [{"measurement": "levels of Neurog2 up-regulation relative to a dCas9-VP64 fusion (sgRNA 1.0)", "setting": "Neurog2; aptamer-mediated recruitment of MS2-VP64, with dCas9", "result": 12, "unit": "fold"}, {"measurement": "target gene upregulation (Neurog2), in words", "setting": "Neurog2; with dCas9-vp64 and MS2-vp64, compared with regular guide and dCas9-vp64", "result": "much higher target gene upregulation compared to the previous design"}, {"measurement": "ASCL1 activation, comparison in words", "setting": "human ASCL1", "result": "more potent than either of the 3′ MS2 sgRNA architectures"}, {"measurement": "levels of transcription activation relative to sgRNA+2×MS2", "setting": "human ASCL1; ASCL1", "result": 14, "unit": "fold"}, {"measurement": "MYOD1 activation, comparison in words", "setting": "human MYOD1", "result": "more potent than either of the 3′ MS2 sgRNA architectures"}, {"measurement": "levels of transcription activation relative to sgRNA+2×MS2", "setting": "human MYOD1; MYOD1", "result": 8.5, "unit": "fold"}]}
